In patent US20070149406A1, “Plant growth regulation” (Bayer CropScience GmbH, priority 2003, published 2007):

Tests used:
[1] = system: maize (Zea mays, variety “LORENZO”); assay: Root growth assay, maize; assay type: in vivo; settings: for Root Growth: wet root weight 16 days post treatment, Root Growth of 100 set as the standard
Text: (§1) Plant roots are a highly proliferative tissue that allows an easy accessible, cheap and short term screening method for plant growth regulators. The results obtained can easily be transferred to the overall effects on a plant of plant growth regulators identified by such a system. By using this root assay one is enabled to determine the effect of a seed treatment to root growth and/or germination and/or changes in habitat of germinated plants in order to identify the possible use as a yield enhancer. Two seeds of wheat (Triticum aestivum, variety “TRISO”) or 1 seed of maize (Zea mays, variety “LORENZO”) per hole in a plastic tray which contains an architecture of 8×13 holes were placed on compost soil covered with sand. These seeds were treated with 100 μl/ hole, which creates an application volume of approx. 1200 I/ha, of a compound solution at active ingredient rates equivalent to 100, 10 and 1 g a.i./ha of each compound using an robotic application system (Lizzy Spray Robotics). Six replicates in a row of each compound and concentration were done. The outer rim of the above defined plastic tray was untreated to avoid false negative effects and the middle row (No. 7) was used as untreated control. The treated seeds were allowed to dry for approx. 4 hours and subsequently covered with sand and watered. The trays were stored in climate chambers with 14 hours lighting at a temperature of 24° C. (±2) at daytime and 16° C. (±2) at night and relative humidity (rH) of 60% and daily watered. Assessments were done 16 (±2) days post treatment by counting the germinated plants and assessing the phytotoxicity symptoms and percentage. In addition, the roots were washed out and the shoots were cut directly above the seed and the wet roots were placed on dry paper towels for approximately 30 minutes and weighted afterwards. This procedure provides a similar grade of moisture to the roots so that a comparison of the weights is possible. […] The effects observed concerning Root Growth given in column 2 (Root Growth of “100” is set as the standard) are directed to concentrations that are equivalent to 100, 10, 1 g a.i./ha, each.

[2] = system: wheat (Triticum aestivum, variety “TRISO”); assay: Root growth assay, wheat; assay type: in vivo; settings: for Root Growth: wet root weight 16 days post treatment, Root Growth of 100 set as the standard
Text: as §1

[3] = system: maize hybrid Magister and Zamora; assay: Field trial, seed-treated maize, grain yield; assay type: in vivo; settings: seed treatment 1 g/100 kg seeds (0.0003 kg/ha)
Text: Maize seeds of maize hybrid Magister and Zamora were seed treated with compound 1.136 at 1 g/100 kg seeds (0.0003 kg/ha). Field trials were set up in a split plot design representing the plants treated with compounds of formula (I) as well as the non-treated control plants.

SMILES: CCCCCNC(=O)c1nn(-c2c(Cl)cc(C(F)(F)F)cc2Cl)c(N)c1[S+]([O-])C(F)(F)F (stereo not shown) [Compound 1.141]
- effect as plant growth regulator in maize (in words) [1]: remarkable effect
- Root Growth ([1]; 1 g a.i./ha): 111
- Root Growth ([1]; 10 g a.i./ha): 102
- Root Growth ([1]; 100 g a.i./ha): 95
- effect as plant growth regulator in wheat (in words) [2]: superior effect
- Root Growth ([2]; 1 g a.i./ha): 257
- Root Growth ([2]; 10 g a.i./ha): 160
- Root Growth ([2]; 100 g a.i./ha): 256

SMILES: Nc1c([S+]([O-])C(F)(F)F)c(C(=O)NCC2CCCO2)nn1-c1c(Cl)cc(C(F)(F)F)cc1Cl (stereo not shown) [Compound 1.144]
- Root Growth ([2]; 1 g a.i./ha): 170
- Root Growth ([2]; 10 g a.i./ha): 115
- Root Growth ([2]; 100 g a.i./ha): 110

SMILES: NC(=O)c1nn(-c2c(Cl)cc(C(F)(F)F)cc2Cl)c(N)c1[S+]([O-])C(F)(F)F (stereo not shown) [Compound 1.136]
- effect as plant growth regulator in maize (in words) [1]: significant effects of approximately the same size
- Root Growth ([1]; 1 g a.i./ha): 107
- Root Growth ([1]; 10 g a.i./ha): 131
- Root Growth ([1]; 100 g a.i./ha): 74
- effect as plant growth regulator in wheat (in words) [2]: significant effects of approximately the same size
- Root Growth ([2]; 1 g a.i./ha): 124
- Root Growth ([2]; 10 g a.i./ha): 75
- Root Growth ([2]; 100 g a.i./ha): 58
- increase in grain yield compared to non-treated control plants ([3]; maize hybrid Magister): up to 119%
- increase in grain yield compared to non-treated control plants ([3]; maize hybrid Zamora): up to 131%

SMILES: CNc1c([S+]([O-])C(F)(F)F)c(C(=O)N(C)C)nn1-c1c(Cl)cc(C(F)(F)F)cc1Cl (stereo not shown) [Compound 1.228]
- Root Growth ([1]; 1 g a.i./ha): 72
- Root Growth ([1]; 10 g a.i./ha): 111
- Root Growth ([1]; 100 g a.i./ha): 186

SMILES: CCOc1c(SC(F)(F)F)c(C(N)=O)nn1-c1c(Cl)cc(C(F)(F)F)cc1Cl [Compound 3.3, 1-(2,6-Dichloro-4-trifluoromethylphenyl)-5-ethoxy-4-trifluoromethylthio-1H-pyrazole-3-carboxylic acid amide]
- melting point: 161 °C

SMILES: Nc1c(SC(F)(F)F)c(C(=O)O)nn1-c1c(Cl)cc(C(F)(F)F)cc1Cl [Compound 2.10, 5-Amino-1-(2,6-dichloro-4-trifluoromethylphenyl)-4-trifluoromethylthio-1H-pyrazole-3-carboxylic acid]
- Root Growth ([2]; 1 g a.i./ha): 158
- Root Growth ([2]; 10 g a.i./ha): 118
- Root Growth ([2]; 100 g a.i./ha): 134
